Test [1] deals with pseudotyped virus (NL4-3 provirus with various HIV gp160 envelope clones). Kind of test: Pseudotyped virus assay (PSV), luciferase reporter, U373 cells expressing human CD4 and CXCR4 or CCR5. Format: cell-based. The text has this: A pseudotyped virus assay (PSV) was used to assess the potency of various HIV entry inhibitors. Replication defective virus was produced by co-transfection of a plasmid containing an NL4-3 provirus [containing a mutation in the envelope open reading frame (ORF) and a luciferase reporter gene replacing the nef ORF] and a CMV-promoter expression plasmid containing an ORF for various HIV gp160 envelope clones. The harvested virus was stored at −80C in small aliquots and the titer of the virus measured to produce a robust signal for antiviral assays.
The PSV assay was performed by using U373 cells stably transformed to express human CD4, the primary receptor for HIV entry and either human CXCR4 or human CCR5 which are the co-receptors required for HIV entry as target cells for infection. Molecules of interest (including, but not limited to small molecule inhibitors of HIV, neutralizing antibodies of HIV, antibody-drug conjugate inhibitors of HIV, peptide inhibitors of HIV, and various controls) were diluted into tissue culture media and diluted via serial dilution to create a dose range of concentrations. This dose-range was applied to U373 cells and the pre-made pseudotyped virus added. The amount of luciferase signal produced after 3 days of culture was used to reflect the level of pseudotyped virus infection.

The test system of the next test is HIV strains/subtypes. The conditions noted are these: cited from earlier work.

In general, IC50 refers to the concentration that inhibits the measured activity by half. Higher therefore signals a need for much substance.

For the molecule `O=C1Nc2ccc(Cl)cc2[C@@](C#CC2CC2)(C(F)(F)F)O1` [EFV, Efavirenz], the IC50 in test [1] (Human immunodeficiency virus 1, NL43, Table 14, first IC50 column (no further heading)) is 1.9 nM; in test [1] (Human immunodeficiency virus 1, NL43, Table 14, second IC50 column (no further heading)), 1.53 nM; in test [1] (Human immunodeficiency virus 1, NL43, Table 14, third IC50 column (no further heading)) it was 1.6 nM.
As to “VRC01: broadly neutralizing anti-HIV antibody (IgG1) binding gp120, expressed in CHO cells; SEQ ID NO:9-13”, the HIV strains/subtypes neutralized in the test on HIV strains/subtypes was 90%.

The values are drawn from patent US20190328900A1, “ANTIBODY-DRUG CONJUGATES AND THERAPEUTIC METHODS USING THE SAME” (priority 2016, published 2019).
